Tests used:
endogenous canine ABCB1 = biological target: T1, endogenous canine ABCB1 (Canis lupus familiaris, UniProt C0KKU9); experiment: Transepithelial transport of EAI045 across MDCK-II parental cell layers; format: in vitro ADME; details: for efflux ratio r (relative transport ratio): EAI045 5 μM
T1 construct: the endogenous canine ABCB1, expressed at low levels in the parental cell line; endogenous in cells; host or cells: MDCK-II parental cells (ECACC 00062107)
Method: (§1) Transport of EAI045 (5 μM) across epithelia was tested using cell layers of Madin–Darby Canine Kidney (MDCK-II) cells and derived clones expressing hABCB1, hABCG2, or mAbcg2 cDNA. […] In cells overexpressing hABCB1, there was clear transport of EAI045 in the apical direction (r = 5.5, Figure 1C). […] To evaluate the interaction between hABCG2 and mAbcg2 and EAI045, zosuquidar (5 μM) was added to inhibit any endogenous canine ABCB1. In cells overexpressing hABCG2, the BA transport of EAI045 was somewhat increased relative to the AB transport, resulting in an efflux ratio of 1.4 (Figure 1E).
(§2) Figure 1 In vitro transepithelial transport of EAI045 (5 μM) using MCDK-II parental cells (A,B) or transduced with human ABCB1 (C,D), human ABCG2 (E,F), or murine Abcg2 (G,H) cDNA. At t = 0 EAI045 was added in the donor compartment (either apical or basolateral). At 1, 2, and 4 h EAI045 was quantified in the acceptor compartment and the cumulative total transported amount per well was plotted (n = 3). Zosuquidar (5 μM) was added to inhibit the human and/or the endogenous ABCB1, while Ko143 (5 μM) was added to inhibit the human or murine ABCG2. r, relative transport ratio. […] Points, mean; bars, SD. TEXT PRINTED IN THE PICTURE: (A) no label printed: Parental: r = 1.7 | (B) no label printed: Parental + Zos.: r = 1.1 | (C) no label printed: hABCB1: r = 5.5 | (D) no label printed: hABCB1 + Zos.: r = 1.3 | (E) no label printed: hABCG2 + Zos.: r = 1.4 | (F) no label printed: hABCG2 + Zos. + Ko143: r = 1.1 | (G) no label printed: mAbcg2 + Zos.: r = 1.8 | (H) no label printed: mAbcg2 + Zos. + Ko143: r = 1.4
(§3) Madin–Darby Canine Kidney (MDCK-II) cells (ECACC 00062107) stably transduced with human (h) ABCB1, hABCG2, or mouse (m) Abcg2 cDNA were generated in our institute between 1998 and 2005. […] In short, cells were allowed to grow an intact monolayer in 3 days, which was monitored with transepithelial electrical resistance (TEER) measurements, both before and after the transport phase. […] Proper functionality of these cell lines was monitored by continual testing with a variety of drug substrates.

human ABCG2 = biological target: T2, human ABCG2 (Homo sapiens, UniProt Q9UNQ0); experiment: Transepithelial transport of EAI045, MDCK-II cells transduced with human ABCG2; format: in vitro ADME; details: for efflux ratio r (relative transport ratio): EAI045 5 μM
T2 construct: expressed in transfected cells; host or cells: MDCK-II cells, stably transduced, generated in the authors' institute
T2 sequence (Q9UNQ0 1-655): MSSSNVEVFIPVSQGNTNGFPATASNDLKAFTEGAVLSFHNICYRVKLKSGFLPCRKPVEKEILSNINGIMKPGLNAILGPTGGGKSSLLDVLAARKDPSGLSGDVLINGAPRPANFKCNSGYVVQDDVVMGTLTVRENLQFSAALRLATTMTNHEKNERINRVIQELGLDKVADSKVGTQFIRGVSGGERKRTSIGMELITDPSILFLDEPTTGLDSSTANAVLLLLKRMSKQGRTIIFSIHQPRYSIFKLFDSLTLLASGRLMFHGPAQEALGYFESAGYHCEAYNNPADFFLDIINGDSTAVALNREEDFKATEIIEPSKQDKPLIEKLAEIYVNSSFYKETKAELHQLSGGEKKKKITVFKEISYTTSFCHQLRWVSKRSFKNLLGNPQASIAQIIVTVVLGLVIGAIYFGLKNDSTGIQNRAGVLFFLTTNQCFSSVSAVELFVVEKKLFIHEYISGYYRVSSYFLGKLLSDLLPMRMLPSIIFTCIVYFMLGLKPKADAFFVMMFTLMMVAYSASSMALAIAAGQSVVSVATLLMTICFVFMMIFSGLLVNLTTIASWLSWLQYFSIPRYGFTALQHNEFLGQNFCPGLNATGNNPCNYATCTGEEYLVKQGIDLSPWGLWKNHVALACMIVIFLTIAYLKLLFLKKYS
Method: as §1, §2, §3

[1] = tested on: L858R/T790M EGFR mutant kinase; design: method as in PMID 27251290; details: cited from earlier work
[2] = tested on: lung cancer driven by EGFR(L858R/T790M); details: cited from earlier work

T1 sequence (C0KKU9 1-1281): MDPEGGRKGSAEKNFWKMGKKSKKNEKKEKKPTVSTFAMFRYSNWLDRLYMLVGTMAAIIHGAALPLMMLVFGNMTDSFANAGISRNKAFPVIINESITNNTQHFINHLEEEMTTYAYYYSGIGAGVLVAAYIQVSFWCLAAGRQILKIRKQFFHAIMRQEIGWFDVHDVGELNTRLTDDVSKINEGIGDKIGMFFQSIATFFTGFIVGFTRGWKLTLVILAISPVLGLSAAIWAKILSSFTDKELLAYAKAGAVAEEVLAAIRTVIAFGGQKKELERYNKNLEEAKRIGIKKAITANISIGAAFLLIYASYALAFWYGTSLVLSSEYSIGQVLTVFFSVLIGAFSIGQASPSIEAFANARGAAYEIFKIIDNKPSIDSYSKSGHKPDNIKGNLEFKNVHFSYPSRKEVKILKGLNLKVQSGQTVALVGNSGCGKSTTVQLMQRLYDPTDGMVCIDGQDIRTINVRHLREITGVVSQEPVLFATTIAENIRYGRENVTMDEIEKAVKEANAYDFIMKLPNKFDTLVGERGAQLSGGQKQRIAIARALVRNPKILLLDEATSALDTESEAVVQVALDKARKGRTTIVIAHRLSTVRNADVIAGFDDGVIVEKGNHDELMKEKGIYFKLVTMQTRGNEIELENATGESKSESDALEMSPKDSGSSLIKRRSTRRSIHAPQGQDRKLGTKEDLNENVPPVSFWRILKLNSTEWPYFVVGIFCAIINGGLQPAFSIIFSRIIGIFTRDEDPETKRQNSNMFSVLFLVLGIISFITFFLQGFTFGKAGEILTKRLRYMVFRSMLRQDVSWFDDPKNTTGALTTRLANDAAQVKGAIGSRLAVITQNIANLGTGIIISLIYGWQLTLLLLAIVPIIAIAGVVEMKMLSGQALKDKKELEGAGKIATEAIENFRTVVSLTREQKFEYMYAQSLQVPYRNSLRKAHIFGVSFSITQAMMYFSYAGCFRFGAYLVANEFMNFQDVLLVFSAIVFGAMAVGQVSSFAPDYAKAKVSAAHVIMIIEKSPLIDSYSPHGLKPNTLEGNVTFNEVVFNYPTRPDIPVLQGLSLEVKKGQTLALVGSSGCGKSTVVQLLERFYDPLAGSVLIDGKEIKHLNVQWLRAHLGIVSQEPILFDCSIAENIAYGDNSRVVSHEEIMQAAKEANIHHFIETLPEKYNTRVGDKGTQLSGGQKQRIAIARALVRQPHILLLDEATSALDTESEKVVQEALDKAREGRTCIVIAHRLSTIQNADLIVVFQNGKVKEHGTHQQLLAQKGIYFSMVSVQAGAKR

## O=C(Nc1nccs1)C(c1cc(F)ccc1O)N1Cc2ccccc2C1=O (stereo not drawn) [EAI045]
Endogenous canine ABCB1; parental + zosuquidar 5 μM
  efflux ratio r (relative transport ratio): 1.1
Endogenous canine ABCB1; parental, no inhibitor
  efflux ratio r (relative transport ratio): 1.7
Endogenous canine ABCB1; in vitro
  transport substrate of endogenous canine ABCB1: moderate transport substrate
Human ABCG2; hABCG2 + zosuquidar 5 μM
  efflux ratio r (relative transport ratio): 1.4
Human ABCG2; hABCG2 + zosuquidar 5 μM + Ko143 5 μM
  efflux ratio r (relative transport ratio): 1.1
Human ABCG2; in vitro
  transport by human ABCG2: at best slightly transported
[1]
  inhibition of the EGFR mutant relative to wild-type EGFR: most selective inhibition
[2]; EAI045 combined with cetuximab
  effect in L858R/T790M mutant mice, combination treatment: marked tumor regressions
[2]; single agent
  effect in L858R/T790M mutant mice, agent alone: very modest effect

Source: paper PMC9505538, “P-Glycoprotein (MDR1/ABCB1) Restricts Brain Accumulation of the Novel EGFR Inhibitor EAI045 and Oral Elacridar Coadministration Enhances Its Brain Accumulation and Oral Exposure” (Pharmaceuticals, 2022)
